Results as given in patent US6716873B1, “Tocopherol ester compounds” (Yasoo Health Inc., priority 2003, dated 2004).

Legend:
[1] = tested on: MDA-MB-231 cells; test: Cell growth/viability assay with tetrazolium salt WST-8 (OD 450 nm); details: MDA-MB-231 (ER-negative); after 6 days of incubation
Method: Cultures of MDA-MB-231 cells were maintained at 37° C. in minimum essential medium containing 3.7 g of NaHCO3 per liter of water, supplemented with 10% (v/v) Fetal Bovine Serum and 1% Penicillin/Streptomycin (broad spectrum antibiotics). […] The media were equilibrated with a humidified atmosphere of 5% CO2. Stock cultures were seeded at a density of 200×10^3 cells/mL and allowed to multiply to confluence. The cells were grown at 37° C. in a humidified atmosphere containing 5% CO2 and passaged when confluent using 0.25% trypsin.
The same amount of ethanol was added to the control samples. Stock solutions were maintained at 4° C.
Cell viability assays. The first method employs a novel tetrazolium salt, WST-8 [2-methoxy-4-nitrophenyl)-3(4-nitrophenyl)-5-(2,4-disulphophenyl)-2-H-tetrazolium, monosodium salt] which produces a highly water-soluble formazan dye generated by dehydrogenases which are active in living cells in a culture medium. For initial growth assays, cell suspensions (5000 cells/100 μL/well) were dispensed onto 96-well microtiter plates and incubated at 37° C., 5% CO2 for 1-12 days. At distinct time intervals 10 μL of the WST-8 solution was added to each well and allowed to incubate for 2-4 hrs. A yellow formazan dye is developed only in living cells. […] The absorbance at 450 nm was measured using a microplate reader (EMS Reader with dispenser, Genesys Software) with a reference wavelength at 600 nm. […] For both methods, cell suspensions (5000 cells/100 μ□L culture media) were initially inoculated on a 96-well microplate and preincubated in an incubator for 48 hrs to allow attachment 10 μL of the stock solution of each compound was added so that the final concentration was equimolar for each compound corresponding to 10 µg/mL of VES.
Comparison of the effect of the different compounds on absorbance at the appropriate wavelength was made by analysis of variance (ANOVA).
Cells were seeded in triplicate in 96-well plates and incubated for 48 hrs to allow attachment. The different compounds were added at the indicated concentrations and allowed to incubate for an additional 4 days. The indicated incubation time previously was determined in a growth assay ats the time of maximal proliferation rate. Tetrazolium salt WST-8 (10 μL) was added to each well, the cells were allowed to incubate for 2 hours and optical density (OD) measurements of the yellow formazan dye were made at 450 nm.

[2] = Stability in the culture media by TLC
[3] = tested on: MCF-7 cells; test: Cell viability assay, crystal violet staining (OD620 of cell lysates); details: for OD620 of the cell lysates (crystal violet) / statistical significance of decrease in cell growth / effect on cell growth compared to control (FIG. 1): MCF-7; for OD620 of the cell lysates (crystal violet): equimolar concentrations corresponding to 10 μg/mL of VES; for statistical significance of decrease in cell growth: Day 7, day of maximal proliferation rate; for effect on cell growth compared to control (FIG. 1): equimolar concentrations
Method: (§1) Experimental media. […] Stock solutions were maintained at 4° C.
Cells were plated in triplicate in 96-well plates and allowed to attaach and reach confluence for 48 hours. On Day 2 test compounds were added at equimolar concentrations corresponding to 10 μg/mL of VES. Cell viability was determined at the specified times by staining with crystal violet and measuring the OD620 of the cell lysates.

[4] = tested on: MCF-7 cells; test: Cell growth/viability assay with tetrazolium salt WST-8 (OD 450 nm); details: for inhibitory effect on cell viability (FIG. 2), in words: equimolar concentrations, incubation up to 10 days
Method: as §1
Equimolar concentrations of the different compounds were added on day 2 and allowed for incubation for the indicated time period.

[5] = Chemical stability (solid state, organic solvent, aqueous base by 1H NMR); type: physicochemical; details: pH=9, room temperature, one day
[6] = Day 0, equimolar concentrations, added on day 2
[7] = Day 2, equimolar concentrations
[8] = Day 4, equimolar concentrations
[9] = Day 7, equimolar concentrations
[10] = Day 9, equimolar concentrations
[11] = Day 11, equimolar concentrations

SMILES	inhibition of cell growth [1] [%]	stability in the culture media (TLC) [2]	OD620 of the cell lysates (crystal violet) ([3]; Day 0, added on Day 2)	OD620 of the cell lysates (crystal violet) ([3]; Day 2)	OD620 of the cell lysates (crystal violet) ([3]; Day 5)	statistical significance of decrease in cell growth [3]	OD620 of the cell lysates (crystal violet) ([3]; Day 7)	OD620 of the cell lysates (crystal violet) ([3]; Day 9)	effect on cell growth compared to control (FIG. 1) [3]	optical density (OD) of formazan dye at 450 nm (WST-8) [4, 6]	optical density (OD) of formazan dye at 450 nm (WST-8) [4, 7]	optical density (OD) of formazan dye at 450 nm (WST-8) [4, 8]	optical density (OD) of formazan dye at 450 nm (WST-8) [4, 9]	optical density (OD) of formazan dye at 450 nm (WST-8) [4, 10]	optical density (OD) of formazan dye at 450 nm (WST-8) [4, 11]	cytotoxicity, in words ([4]; concentration equivalent to IC50)	inhibitory effect on cell viability (FIG. 2), in words [4]	cytotoxic effect on MCF-7 cells ([3]; 3.26 μg/mL (equimolar to 10 μg/mL of VES)) [%]	decomposition of aqueous solution (1H NMR) [5]
Cc1c(C)c2c(c(C)c1OC(=O)C(CC(=O)O)[Se]c1ccccc1)CC[C@@](C)(CCC[C@H](C)CCC[C@H](C)CCCC(C)C)O2 (stereo partly drawn) [PSSA-α-Toc, 2-phenylselanyl-succinic acid RRR-α-tocopherol ester]	65	stable for more than one weak	0	0.325	0.9504	statistically significant decrease in cell growth	1.227	1.162	inhibited cell growth much more effectively	0	0.7806	1.4215	2.998	2.812	2.105	not cytotoxic	most potent inhibitory effect throughout the culture period	–	–
O=c1[nH]cc(F)c(=O)[nH]1 [5-FU, 5-fluorouracil, reference compound]	31	–	–	–	–	–	–	–	–	–	–	–	–	–	–	–	–	–	–
O=[Se](=O)([O-])[O-].[Na+].[Na+] [Na Selenate, sodium selenate, reference compound]	–	–	0	0.07344	0.06117	statistically significant decrease in cell growth	0.082	0.05411	–	–	–	–	–	–	–	–	–	100	–
Cc1c(C)c2c(c(C)c1OC(=O)CCC(=O)O)CC[C@@](C)(CCC[C@H](C)CCC[C@H](C)CCCC(C)C)O2 [VES, RRR-α-tocopheryl succinate, reference compound]	44	–	–	–	–	–	–	–	–	0	0.8005	1.439	3.311	3.427	2.99	–	inhibited cell growth more effectively during the first 7 days of incubation	–	–
O=C(O)CC([Se]c1ccccc1)C(=O)O (stereo not shown) [PSSA, phenylselanyl-succinic acid]	31	stable for more than one weak	0	0.3842	1.218	–	1.693	1.495	no measurable effect compared to control	0	0.9149	2.019	3.618	3.541	3.451	–	no inhibitory effect over the first 7 days of incubation	–	less than 5%
